In PubChem BioAssay (NCI):
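Following 48 hours of exposure in 96-well plates, responses at five concentrations were used to interpolate endpoints linearly. At the TGI there is no net growth.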

Experiments:
Experiment in all cases: NCI-60 cell line screen, 48 h
[1] = test system: OVCAR-5 ovarian
[2] = test system: CCRF-CEM leukemia
[3] = test system: K-562 leukemia
[4] = test system: HCC-2998 colon
[5] = test system: HOP-92 NSCLC
[6] = test system: T-47D breast
[7] = test system: UACC-62 melanoma
[8] = test system: DU-145 prostate
[9] = test system: NCI-H226 lung
[10] = test system: UACC-257 melanoma
[11] = test system: MOLT-4 leukemia
[12] = test system: ACHN renal
[13] = test system: NCI-H522 lung
[14] = test system: CAKI-1 renal
[15] = test system: HCT-116 colon
[16] = test system: A498 renal
[17] = test system: UO-31 renal
[18] = test system: OVCAR-8 ovarian
[19] = test system: OVCAR-4 ovarian
[20] = test system: HCT-15 colon
[21] = test system: HT29 colon
[22] = test system: OVCAR-3 ovarian
[23] = test system: SF-268 CNS
[24] = test system: HOP-62 NSCLC
[25] = test system: RPMI-8226 leukemia
[26] = test system: SR leukemia
[27] = test system: SF-295 CNS
[28] = test system: HS 578T breast
[29] = test system: PC-3 prostate
[30] = test system: COLO 205 colon
[31] = test system: SNB-19 CNS
[32] = test system: SK-MEL-28 melanoma
[33] = test system: SK-MEL-5 melanoma
[34] = test system: MDA-N
[35] = test system: SN12C renal
[36] = test system: BT-549 breast
[37] = test system: A549 NSCLC
[38] = test system: MDA-MB-231 breast
[39] = test system: NCI-H23 lung
[40] = test system: SK-OV-3 ovarian
[41] = test system: SF-539 CNS
[42] = test system: MALME-3M melanoma
[43] = test system: MCF7 breast
[44] = test system: RXF 393 renal
[45] = test system: NCI/ADR-RES ovarian
[46] = test system: U251 CNS
[47] = test system: NCI-H460 lung
[48] = test system: HL-60(TB) leukemia
[49] = test system: 786-0 renal
[50] = test system: KM12 colon
[51] = test system: TK-10 renal
[52] = test system: SK-MEL-2 melanoma
[53] = test system: MDA-MB-435
[54] = test system: EKVX NSCLC
[55] = test system: M14 melanoma

Q: Which TGI [1] does the source give for `N#CC(N=Nc1ccc(Cl)cc1)c1nc2ccccc2o1` (stereo not given) here?
A: > 100 µM

Q: And the TGI [2]?
A: 45.6 µM

Q: What about the TGI [3] of the same compound?
A: 50.2 µM

Q: And the TGI [4]?
A: > 100 µM

Q: And the TGI [5]?
A: 70.4 µM

Q: What about the TGI [6] of the same compound?
A: > 100 µM

Q: And the TGI [7]?
A: > 100 µM

Q: And the TGI [8]?
A: > 100 µM

Q: And the TGI [9]?
A: > 100 µM

Q: What about the TGI [10] of the same compound?
A: > 100 µM

Q: What about the TGI [11] of the same compound?
A: > 100 µM

Q: And the TGI [12]?
A: > 100 µM

Q: And the TGI [13]?
A: 81.1 µM

Q: And the TGI [14]?
A: > 100 µM

Q: What about the TGI [15] of the same compound?
A: > 100 µM

Q: What about the TGI [16] of the same compound?
A: > 100 µM

Q: And the TGI [17]?
A: > 100 µM

Q: And the TGI [18]?
A: > 100 µM

Q: What about the TGI [19] of the same compound?
A: > 100 µM

Q: What about the TGI [20] of the same compound?
A: > 100 µM

Q: What about the TGI [21] of the same compound?
A: > 100 µM

Q: What about the TGI [22] of the same compound?
A: > 100 µM

Q: What about the TGI [23] of the same compound?
A: > 100 µM

Q: What about the TGI [24] of the same compound?
A: > 100 µM

Q: What about the TGI [25] of the same compound?
A: > 100 µM

Q: What about the TGI [26] of the same compound?
A: > 100 µM

Q: And the TGI [27]?
A: 67.9 µM

Q: And the TGI [28]?
A: > 100 µM

Q: And the TGI [29]?
A: > 100 µM

Q: And the TGI [30]?
A: > 100 µM

Q: And the TGI [31]?
A: > 100 µM

Q: And the TGI [32]?
A: > 100 µM

Q: What about the TGI [33] of the same compound?
A: > 100 µM

Q: What about the TGI [34] of the same compound?
A: > 100 µM

Q: And the TGI [35]?
A: > 100 µM

Q: And the TGI [36]?
A: 95.6 µM

Q: And the TGI [37]?
A: > 100 µM

Q: And the TGI [38]?
A: > 100 µM

Q: What about the TGI [39] of the same compound?
A: 98.2 µM

Q: And the TGI [40]?
A: > 100 µM

Q: And the TGI [41]?
A: 56.2 µM

Q: And the TGI [42]?
A: > 100 µM

Q: And the TGI [43]?
A: > 100 µM

Q: What about the TGI [44] of the same compound?
A: > 100 µM

Q: And the TGI [45]?
A: > 100 µM

Q: And the TGI [46]?
A: > 100 µM

Q: What about the TGI [47] of the same compound?
A: > 100 µM

Q: What about the TGI [48] of the same compound?
A: > 100 µM

Q: What about the TGI [49] of the same compound?
A: > 100 µM

Q: And the TGI [50]?
A: > 100 µM

Q: And the TGI [51]?
A: > 100 µM

Q: What about the TGI [52] of the same compound?
A: 88.7 µM

Q: And the TGI [53]?
A: > 100 µM

Q: What about the TGI [54] of the same compound?
A: > 100 µM

Q: What about the TGI [55] of the same compound?
A: > 100 µM
